# Test: Human HepG2 cell viability assay in 384 well format
# Format: toxicity, cell-based
# Parameters: dose 125 nL, time 70.5 hour; concentration not given beside the values
# Conditions: HepG2 cells, read-out: Inhibition
row,Compound,cytotoxicity at 70.5 h [%]
1,Cc1nn(C)c(C)c1CCC(=O)OCC(=O)N1CCc2sccc2C1,20.5
2,O=S(=O)(NCc1cccnc1OC1CCCC1)N1CCOCC1,-10.2
3,N#CCCN1CCC(=Cc2ccccc2)CC1,-6.02
4,O=S(=O)(NCc1cccnc1OC1CCCC1)N1CCCCC1,0.259
5,CCCc1nc(C)c(C(=O)NCCn2ccnc2)s1,-7.16
6,Cc1cc(C)n(CCC(=O)OCC(=O)N2CCc3sccc3C2)n1,-4.48
7,CC1(C)CN(CC(F)(F)F)CCN1CC(=O)NC1CCCC1,-4.28
8,CCc1nonc1NC(=O)C(C)Oc1ccccc1F (stereo not given),-10.4
9,CCC(NCc1nccn1C)c1nc(C(F)(F)F)cs1 (stereo not given),-0.765
10,Cc1cccc2c(CCNC(=O)NCCC[S+](C)[O-])c[nH]c12 (stereo not given),-1.72
11,CC(C#N)(NC(=O)COc1ccccc1Br)C1CC1 (stereo not given),8.66
12,Cc1nn(C)c(C)c1CC(=O)NCc1cccnc1OC1CCCC1,-3.95
13,Cc1nn(C)c(C)c1C(=O)NCc1cccnc1OC1CCCC1,-5.73
14,COc1ccc(Cl)cc1-c1cc(NC(=O)C2COCCO2)[nH]n1 (stereo not given),-4.84
15,CC(C(=O)Nc1ncccn1)N1CCC(n2ccnc2)CC1 (stereo not given),-4.52
16,Cc1cccc(C2(O)CCN(C(=O)c3ccccn3)CC2)c1C,1.09
17,CS(=O)(=O)NCc1ccc(NC(=O)CC2=CCCCC2)cc1,-0.966
18,COc1ccc(CN2CCC(C(N)=O)CC2)cc1SC(F)(F)F,5.97
19,Cc1cc(C(C)(O)CNC(=O)C2(C)CCCC2)c(C)o1 (stereo not given),-0.0569
20,Cc1ccc2c(c1)OCCCC2NC1CCN(C)CC1 (stereo not given),-0.243
21,CCS(=O)(=O)NCCNCc1cc(F)ccc1Br,14.4
22,Cc1nc(-c2cccc(C(=O)N(C)CC(C)O)c2)cs1 (stereo not given),0.422

row,Compound,cytotoxicity at 70.5 h [%]
1,CCCNC(=O)C1CCCN(Cc2ccc(-n3cncn3)c(C)c2)C1 (stereo not given),-1.68
2,COc1ccc(C(C)Nc2ncc(C(N)=O)cc2Cl)cc1F (stereo not given),-10.7
3,Cc1nn2c(nc1=O)-c1ccccc1NC2C(=O)O (stereo not given),-9.44
4,O=C(CC1CCCO1)Nc1ccc2c(ccn2CCN2CCOCC2)c1 (stereo not given),-8.05
5,CN(Cc1ccccc1O)C(=O)Nc1cc(F)cc(N2CCCC2)c1,-7.37
6,O=C(Cc1ccccc1O)Nc1ccc(N2CCCC2)nc1,-10.3
7,Cc1cc(CS(=O)(=O)NCC2CCCCC2)on1,0.508
8,COCCS(=O)(=O)NCC(C)c1cccc(C)c1 (stereo not given),-3.93
9,CN(Cc1cnccn1)C(=O)Nc1cc(F)cc(N2CCCC2)c1,-5.64
10,Cc1cc(C(=O)NCC(=O)NC(c2ncccc2C)C(C)C)c(C)o1 (stereo not given),3.7
11,CN1CCc2c(NC(=O)NCc3ccccc3Cl)cccc21,-1.74
12,Cc1cc(N2CCC(NC(=O)CCc3cnn(C)c3)CC2)nc(C)n1,-4.77
13,C[C@@H]1CN(C(=O)c2ccc(Br)cc2F)CC(C(N)=O)O1 (stereo not given in full),-4.88
14,COc1cc(C)c(NC(=O)NCCn2cccc2)cc1OC,10.3
15,Cc1cccc(NS(=O)(=O)c2cnn(C)c2)c1C#N,-12.8
16,Cc1c(CNC(=O)Nc2cccc3c2CCN3C)cnn1C,-3.95
17,N#Cc1ccc(S(=O)(=O)Nc2ccccc2C#N)cn1,-6
18,COCCCS(=O)(=O)N1CCN(C(=O)CO)CC1,-0.333
19,CC(C)OCCC(=O)N(C)c1ccc(F)c(Cl)c1,-4.66
20,CCn1cc(C2CCN(Cc3ccnc(N(C)C)c3)CC2)cn1,-4.12
21,c1csc(-c2noc(CC3CCCO3)n2)c1 (stereo not given),6.86
22,CN(C)S(=O)(=O)c1ccc(CNc2ccc(Cl)cn2)cc1,0.742

row,Compound,cytotoxicity at 70.5 h [%]
1,CCCn1ccc2cc(NC(=O)CC3CCCO3)ccc21 (stereo not given),-5.13
2,CC(C)C(=O)N1CCN(CC(O)c2cc(Cl)ccc2Cl)CC1 (stereo not given),-7.34
3,OC(CN1CCOCC1)c1cc(Cl)ccc1Cl (stereo not given),9.36
4,CN1CCCN(C(=O)c2ccn3ccnc3c2)CC1,6.21
5,O=C(c1ccncc1)N1CCCC1c1cccc(Br)c1 (stereo not given),21.6
6,O=C(c1ccnc(NC2CC2)c1)N1CCCC1c1cccc(Br)c1 (stereo not given),-6.56
7,CCc1cccc(OCC(=O)NC(C)c2nnc3n2CCC3)c1 (stereo not given),-3.83
8,Cc1cccc(C)c1OCC(=O)NC(C)c1nnc2n1CCC2 (stereo not given),-7.81
9,CCN(C(=O)CCc1ccc2c(c1)OCO2)C1CC(=O)NC1=O (stereo not given),6.1
10,CC(NC(=O)COc1ccccc1Cl)c1nnc2n1CCC2 (stereo not given),-6.92
11,CN(C)C(=O)C1CSCN1C(=O)CCc1ccco1 (stereo not given),-8.81
12,COCCNC(=O)N1CCN(C(=O)Cc2ccccc2F)CC1,-8.11
13,CC(C)c1nnc2n1CCN(Cc1nc3c(F)cccc3[nH]1)C2,-5.06
14,CN(CCc1cccs1)C(=O)Nc1cccc(S(C)(=O)=O)c1,-2.36
15,COCC(C)(NC(=O)c1cc(Cl)c(-n2cccc2)cc1OC)C(N)=O (stereo not given),-2.57
16,Fc1cccc2[nH]c(CN3CCn4c(nnc4C4CC4)C3)nc12,1.58
17,Cc1nc(S(=O)(=O)N2CCSCC2)cn1C,-2.15
18,Cn1cnc(S(=O)(=O)N2CCSC3(CCCCC3)C2)c1,4.34
19,O=C(c1c(O)cnc2ccccc12)N1CCN(CC(F)F)CC1,-3.97
20,CN(C)C(=O)N1CCN(C(=O)c2ccn3cncc3c2)CC1,0.173
21,CCC(CC)S(=O)(=O)NC(=O)c1ccc2c(c1)ncn2C,-0.423
22,COCCNC(=O)N1CC(Cc2ccccc2F)C1,-4.03

row,Compound,cytotoxicity at 70.5 h [%]
1,COc1ccc(C)cc1C(C)NCc1cnnn1C (stereo not given),-1.22
2,COc1ccc(C)cc1C(C)NCc1cccn1C (stereo not given),-0.611
3,CC(NCc1ccsc1)c1ccc(OCc2nccn2C)cc1 (stereo not given),-3.28
4,CC(NCc1cnn(C)c1)c1ccc(OCc2nccn2C)cc1 (stereo not given),-2.06
5,CCn1cc(CNC2CCN(c3cccc(Cl)c3)C2)cn1 (stereo not given),-3.2
6,Cc1cccc(CCC(=O)Nc2cccnc2N2CCC(O)CC2)c1,1
7,Cc1cnn(CCC(=O)Nc2cccnc2N2CCC(CO)CC2)c1,-1.8
8,Cc1ccc(C(=O)Nc2ccc(N3CCCC3)cn2)cc1C,0.417
9,CCNC(=O)NC(=O)CN1CCOC(c2ccc(Br)cc2)C1 (stereo not given),-3.93
10,O=C(CCN1CCC(c2cc3ccccc3[nH]2)CC1)N1CCOCC1,-1.25
11,CN(CC(=O)NCC(C)(C)c1ccc2c(c1)OCO2)c1cnccn1,-12.3
12,COCC(=O)N(C)Cc1ccc(OCc2cccs2)cc1,-6.51
13,Cn1cc(C(=O)N2CCO[C@@H]3CN(C4CCC4)C[C@@H]3C2)cn1,-3.32
14,O=C(C1CC(F)(F)C1)N1C[C@@H]2CN(CC3CC3)CCO[C@@H]2C1,26
15,CC(=O)N1CCO[C@@H]2CN(S(=O)(=O)c3cccnc3)C[C@@H]2C1,0.618
16,CC(C)NC1CCc2[nH]c(=O)ccc2C1 (stereo not given),-3.78
17,c1ccc(OCC2C[C@@H]3[C@@H](C2)OCCN3Cc2ccoc2)nc1 (stereo not given in full),-0.172
18,COCCN1CCO[C@@H]2CN(S(=O)(=O)c3cccnc3)C[C@@H]2C1,3.84
19,CC(C)N1CCC(N2CCC(C(=O)N(C)C)CC2)CC1,1.65

# From ChEMBL document CHEMBL3507680, “University of Dundee, Gates Library screen for HepG2 cell viability”
